Data from patent US9986723B2, “Screen and use of therapeutics for pancreatic ductal adenocarcinoma” (The Board of Regents of the University of Texas System, priority 2014, dated 2018).

Experiments:
Capan-EMT cells = Capan-EMT cells (Capan-1 on collagen with TGFβ), ICC; type: cell-based, human; settings: SFM overnight
Method: FIGS. 32A-C. Acquisition of Axl expression sensitizes Capan-EMT cells to warfarin. (FIG. 32A) Capan-1 cells cultured on collagen were analyzed by flow cytometry for Axl expression. The positive gate was set using a control IgG and 10C9 was used to detect Axl. […] (FIG. 32B) Capan-EMT cells were cultured in SFM overnight in the absence (control) or presence of warfarin and expression Axl, E-Cadherin, and cleaved caspase 3 was determined by ICC. Representative images are shown. (FIG. 32C) The expression Zeb1, Snail, and Twist was determined by qPCR in Capan-1 and Capan-EMT cells.
In vitro epithelial to mesenchymal transition assays. In vitro, mesenchymal transition was induced by incubating cells on chamber slides coated with collagen and adding TGF-β (20 ng/ml) to media with 5% serum for 48 hours. Media was then replaced with 1% serum and fresh TGF-β with or without warfarin (2 μM) for an additional 48 hours. Cells were the evaluated by immunocytochemistry by fixing in acetone, permeabilizing with 0.5% Brij, and incubating overnight with primary antibody: Axl, p-Axl, (R&D Systems); Vimentin (phosphoSolutions); Zeb1, E-Cadherin, and β-Catenin (Santa Cruz). The effect of Gas6 signaling on EMT was evaluated by seeding cells overnight and incubating with Gas6 (100 ng/ml) with or without warfarin for 48 hours. Cells were evaluated by ICC as described.

Panc-1 tumors = assay: Low dose warfarin in drinking water, orthotopic human tumor xenograft; type: in vivo, mouse
Method: (FIG. 23A) Primary tumor burden after therapy with warfarin. Therapy was initiated when implanted tumors were visible by ultrasound (˜10 mm^3) and consisted of control (normal drinking water) or warfarin, administered in the drinking water at 0.5 mg/L (immunocompetent mice: Pan02 (n=4, control; 3, warfarin), KIC (n=10, control; 8, warfarin)) or 1 mg/L (Panc-1 (n=10, control; 8, warfarin), AsPC-1 (n=8, control; 6, warfarin), Capan-1 (n=10, control; 7, warfarin)) and continued for 2-4 weeks until control mice were moribund. Therapy in KIC mice was initiated at 3 weeks of age and continued for 4 weeks. (FIG. 23B) Metastases were determined grossly upon sacrifice and confirmed by histological evaluation of the liver. […] Incidence of metastasis is also indicated. […] Tumor volume determined by serial ultrasound. […] Therapy with mAb 10C9 (250 μg 2×/week) was initiated when tumors were established as above and persisted for 4 weeks. […] Error bars indicate s.e.m.
(§1) (FIG. 24A) HEK293 cells engineered to stably express recombinant Gas6 were grown in the presence of Vitamin K or Vitamin K+warfarin. Gas6 levels and γ-carboxylation were assayed by immunoblotting conditioned media. Conditioned media from untransfected HEK293 cells was used as a negative control. (FIG. 24B) Panc1 cells were grown overnight in media with 1% serum with no additions (NT), warfarin (2 μM) or BGB324 (2 μM). Lysates were probed for total Axl (tAxl) and phosphorylated Axl (pAxl). (FIG. 24C) Panc1 cells were grown in the presence of control media, Vitamin K, warfarin or warfarin+Vitamin K. The level of phosphorylated Axl (pAXL, red) was determined by immunofluorescence. (FIG. 24D) Panc1 cells were grown overnight in media with 1% serum with no additions (control), warfarin (1 μM), Gas6 (1.3 nM) or Gas6+warfarin. Lysates were probed for phosphorylated Akt (pAkt) and actin. (FIG. 24E) Lysates from Panc1 tumors harvested from mice treated with control or warfarin were probed for expression of tAxl, pAxl, actin, pAKT, tAKT, and cleaved Parp. (FIG. 24F) The effect of warfarin on cell migration was assessed by a ‘scratch’ assay. Monolayers of the indicted cells were wounded with a pipet tip. The cells were incubated in media containing 2% serum+/−warfarin (2 μM) or media containing 2% serum+Gas6 (1.3 nM)+/−warfarin.
FIGS. 26A-C. […] (FIG. 26A) the expression level of pAxl, Zeb1 and nuclear β-catenin in Panc1 cells in vitro was measured by immunofluorescence under normal culture conditions or after growth on collagen matrix and treatment with TGF-β (20 ng/ml) to induce epithelial to mesenchymal transition, with or without warfarin (2 μM). p-Axl was normalized to total Axl area. (FIG. 26B) Panc1 cells were treated with either SFM, recombinant Gas 6 (100 ng/ml) or Gas6 following pretreatment with 10C9 (mAb anti-Axl). Transition to a mesenchymal phenotype was characterized by changes in vimentin and nuclear Zeb1 expression determined by immunofluoresence. […] (FIG. 26C) Paraffin embedded sections of Panc-1 tumors were analyzed by immunofluorescence for markers of EMT.

AKT = assay: Gas6-induced phosphorylated Akt in Panc1 cells; type: cell-based, human; settings: warfarin 1 μM, Gas6 1.3 nM
Method: as §1

[1] = tumor lysates, low dose warfarin
[2] = tumor sections, low dose warfarin

Structure (SMILES): CC(=O)CC(c1ccccc1)c1c(O)c2ccccc2oc1=O (racemic) [Warfarin]
- sensitivity to warfarin (Axl, E-cadherin, cleaved caspase-3) (Capan-EMT cells): sensitive
- intratumoral microvessel density (Panc-1 tumors; Endomucin, low dose warfarin): reduced
- expression of vimentin and E-cadherin in tumors (Panc-1 tumors; immunofluorescence, low dose warfarin): reduced expression of vimentin and elevated the expression of E-cadherin
- level of cleaved Parp (Panc-1 tumors; [1]): increased
- level of pAxl and pAkt in tumors (Panc-1 tumors; [1]): substantially suppressed
- cleaved caspase 3 and tumor necrosis (Panc-1 tumors; [2]): elevated
- expression of phosphorylated histone H3 (proliferation) (Panc-1 tumors; [2]): decreased
- primary tumor growth (Panc-1 tumors; warfarin 1 mg/L drinking water): little effect
- Gas6-induced activation of AKT (AKT): inhibited
